Publication PMC12692722, “The Tetrapeptide HAEE Promotes Amyloid-Beta Clearance from the Brain” (International Journal of Molecular Sciences, 2025)
Residues, ends and D or L forms follow the SMILES beside them.

Key:
HMC3 cells [1] = test: Aβ degradation assay in HMC3 cells with exocytosis inhibitor GW4869; assay type: cell-based, human; details: Aβ 1 µM 1 h, wash, then 3 h with 10 µM GW4869 ± 30 µM HAEE, ELISA, n = 3
Protocol: HMC3 cells were treated with 1 µM Aβ in serum-free culture medium for 1 h to allow for peptide internalization. Cells were then washed to remove extracellular Aβ. […] Aβ released into the cell culture medium during the degradation phase was also quantified by ELISA.

HMC3 microglial cells = test: Aβ uptake and clearance in HMC3 microglial cells (ELISA); assay type: cell-based, human; details: Aβ 1 µM, HAEE 30 µM, n = 6
[2] = system: zinc-induced Aβ oligomers; design: method as in PMID 32872553, PMID 21081056; details: binds to Aβ at the 11EVHH14 site; cited from earlier work
Aβ = biological target: T1, Aβ (Homo sapiens, UniProt P05067); test: Aβ level in mouse brain tissue after i.c.v. oligomeric Aβ and HAEE (ELISA); assay type: in vivo; details: C57BL/6 mice, HAEE 100 µM 1 μL i.c.v. days 1-3, n = 8
T1 construct: purchased Peptide Specialty Laboratories GmbH; host or cells: synthetic peptide
Protocol: (§1) After a recovery period, mice were randomly divided into two experimental groups using online GraphPad random number generator (Figure 1A, n = 8 per group): 1. The Aβ group received oligomeric Aβ and vehicle solution (ACSF). 2. The Aβ + HAEE group received oligomeric Aβ and the synthetic tetrapeptide HAEE (100 µM). The group allocation was unknown to the researchers who performed the neurosurgical procedures and ELISA.
(§2) On day 1, all mice received an intracerebroventricular (i.c.v.) injection of oligomeric Aβ (1 μL). Immediately after, mice received the first i.c.v. injection of either HAEE (1 μL) or ACSF (1 μL). Injections were repeated on days 2 and 3 (HAEE or ACSF only). All injections were performed on awake, freely moving mice through the guide cannula at a rate of 1 μL/min. […]
(§3) Aβ levels in the brain and cell lysates were measured by sandwich ELISA using BAM113cc capture antibodies (50 ng/well, HyTest, Moscow, Russia) and peroxidase-labeled BAM7cc antibodies (100 ng/well, HyTest, Moscow, Russia) as described in [46]. Aβ level was normalized to the protein concentration in the samples, measured using a Pierce™ BCA Protein Assay Kit (Thermo Fisher Scientific, Waltham, MA, USA). The rate of Aβ degradation was calculated as the difference in normalized Aβ level in the cells between the 48-hour and 24-hour time points divided by 24 h. […]

HMC3 cells [3] = test: Intracellular ROS and GSH in HMC3 cells by flow cytometry; assay type: cell-based, human; details: Aβ + HAEE, 24 h
Protocol: The cells were stained with dihydrorhodamine 123 (Ex/Em = 507/525 nm) or monobromobimane (Ex/Em = 395/495 nm) according to ThermoFisher Scientific’s instructions. One minute prior to analysis, 10 μg/mL of propidium iodide (Ex/Em = 535/617 nm, Sigma, St. Louis, MO, USA) was added to the cell samples to evaluate the number of dead cells in the population. The analysis was performed using a BD LSR Fortessa flow cytometer (Becton Dickinson, Franklin Lakes, NJ, USA) and FlowJo^TM Software v.10.8.1 (Becton Dickinson, Franklin Lakes, NJ, USA).

LRP1 = biological target: T2, LRP1 (Mus musculus, UniProt Q91ZX7); test: Inhibitory assay: blocking antibody to LRP1, Aβ level in bEnd.3 cells; assay type: cell-based; details: blocking antibody 10 μg/mL 1 h, Aβ 100 nM + HAEE 20 μM, 2 h, ELISA, n = 3–4
T2 construct: endogenous in cells; host or cells: bEnd.3
Protocol: Cells were incubated with blocking antibodies to LRP or Pgp receptors (10 μg/mL, Santa Cruz Biotechnology, Dallas, TX, USA) for 1 h at +37 °C. […] After 2 h, the cells were washed 3 times with PBS, frozen in liquid nitrogen, and lysed in IP lysis buffer (ServiceBio, Wuhan, China) with the addition of a protease inhibitor (Thermo Fisher Scientific, Waltham, MA, USA) for 1 h at +4 °C with stirring. The cell lysate was centrifuged at 16,000× g, +4 °C, 10 min and the supernatant was collected. The amount of total protein in the lysates was determined using a BCA assay kit (Sigma-Aldrich, St. Louis, MO, USA) according to the manufacturer’s protocol.

HMC3 cells [4] = test: Lysosomal staining of HMC3 cells with LysoTracker Red DND-99; assay type: cell-based, human; details: Aβ 1 μM + HAEE 30 μM, 24 h, 10 cells per field, n = 3
Protocol: Two hours prior to the completion of the incubation period, LysoTracker Red DND-99 (Thermo Fisher Scientific, Waltham, MA, USA) was added to the culture medium at a final concentration of 50 nM to label acidic compartments, including active lysosomes. Immediately before live-cell imaging, cell nuclei were counterstained with NucBlue Live Cell Stain (Thermo Fisher Scientific, Waltham, MA, USA) according to the manufacturer’s instructions. Fluorescent images were acquired using a Nikon Eclipse Ni-U (Nikon Corp., Tokyo, Japan) microscope with appropriate filter sets.

Aβ oligomers [5] = biological target: T3, Aβ oligomers (Homo sapiens, UniProt P05067); test: Oligomer-specific ELISA of Aβ; assay type: biochemical; details: pre-formed Aβ oligomers in the presence vs absence of HAEE; BAM7cc capture and detection
T3 construct: purchased Peptide Specialty Laboratories GmbH; host or cells: synthetic peptide
Protocol: To measure Aβ oligomers using ELISA, two antibodies (a capture antibody and a detector antibody) targeting the same epitope are used. This method therefore allows for the detection of predominantly oligomeric forms of Aβ, which have epitopes available for binding to both the detection antibody and the capture antibody.
BAM7cc antibodies (HyTest, Moscow, Russia), which recognize the N-terminus of Aβ, were added to a 96-well ELISA plate (Wuxi NEST Biotechnology, Wuxi, China) in a volume of 100 μL (0.5 ng/μL) and incubated overnight at +4 °C. The wells of the plate were washed 3 times with 300 μL of PBST (0.05% Tween20) and blocked in 1% BSA (Diaem, Moscow, Russia) in PBST at room temperature and shaken for 1 h. The plate was then washed three times with 300 μL of PBST, and samples were added at a volume of 100 μL per well. The plates were incubated for 2 h at room temperature with shaking, washed 3 times with 300 μL of PBST, and HRP-conjugated BAM7cc antibodies (HyTest, Moscow, Russia) were added at a volume of 100 μL per well (1 ng/μL). The plates were incubated for 1 hour at room temperature with shaking, washed 5 times with 300 μL of PBST, and analyzed using TMB (Diaem, Moscow, Russia). Absorbance was measured at 450 nm using a Multiskan FC Microplate Photometer (Thermo Fisher Scientific, Waltham, MA, USA).

bEnd.3 cells = test: BBB transwell model: Aβ passage through bEnd.3 monolayer; assay type: cell-based, mouse; details: transwell 0.4 μm, Aβ 100 nM, HAEE 20 μM in abluminal compartment, serum-free DMEM, 37 °C, 24 h, ELISA, n = 5
Protocol: For the experiments, mouse bEnd.3 cells were seeded onto the upper surface of transwell inserts (Greiner Bio-One, Kremsmünster, Austria; pore size 0.4 μm) at a density of 70,000 cells per insert and cultured for 7 days to form a confluent monolayer. The volume of medium in the luminal (upper) compartment was 750 μL and in the abluminal (lower) compartment was 1 mL.
The luminal (upper) compartment contained 700 μL of serum-free DMEM. The plates were incubated at 37 °C and 5% CO2. Samples were collected from the luminal compartment at 24 h. […] To control model BBB integrity, paracellular permeability of the bEnd.3 monolayer was assessed using the fluorescent label sodium fluorescein (Sigma-Aldrich, St. Louis, MO, USA) in each experiment as described in [46].

[6] = system: primary astrocyte culture; test: Aβ uptake and clearance in primary astrocyte culture (ELISA); assay type: cell-based, C57BL/6 mouse; details: Aβ 1 µM, HAEE 30 µM, n = 4
Aβ oligomers [7] = biological target: T3, Aβ oligomers; test: Dynamic light scattering of Aβ oligomers; assay type: physicochemical; details: Aβ 50 µM in PBS, 24 h 37 °C, then HAEE 500 µM for additional 24 h 37 °C; measured at 25 °C; triplicate
Protocol: The size distribution of Aβ oligomers was characterized by DLS using a Zetasizer Nano ZS instrument (Malvern Panalytical, Malvern, UK). Oligomeric Aβ was prepared as described in Section 4.6 and further incubated at a concentration of 50 µM in PBS for 24 h at 37 °C to promote oligomerization. To assess the effect of HAEE, the peptide was added to the pre-formed Aβ oligomers at a final concentration of 500 µM (dissolved in PBS), and the mixture was incubated for an additional 24 h at 37 °C. A control sample containing Aβ without HAEE was processed in parallel under identical conditions. Immediately prior to analysis, samples were briefly centrifuged to sediment any large aggregates and transferred to a disposable polystyrene cuvette (Sarstedt, Nümbrecht, Germany). Measurements were performed at 25 °C, and the hydrodynamic diameter (reported as Z-average) and polydispersity index (PDI) were derived from the correlation function using the Zetasizer Software version 7.13 (Malvern Panalytical, Malvern, UK). Each sample was measured in triplicate.

TNFα = TNFα level in mouse brain tissue after i.c.v. oligomeric Aβ and HAEE (ELISA); assay type: in vivo; details: C57BL/6 mice; i.c.v. oligomeric Aβ day 1; HAEE 100 µM 1 μL i.c.v. days 1-3; ELISA of brain homogenate; n = 8
Protocol: as §1, §2, §3

HMC3 cells [8] = test: IL-6 level in HMC3 supernatant (ELISA); assay type: cell-based, human; details: Aβ 1 µM + HAEE 30 µM, 24 h, n = 3
Excerpt: Subsequently, cells were frozen in liquid nitrogen.

[9] = system: nicotinic α4β2 acetylcholine receptors; design: method as in PMID 34207317; details: cited from earlier work
[10] = cited from earlier work
Excerpt: ApoE4 is the primary genetic risk factor for the sporadic form of AD. Unlike other ApoE isoforms, ApoE4 impairs TREM2-dependent microglial phagocytosis, promotes microglial activation, and contributes to chronic neuroinflammation in AD [41, 42].

IL-6 = IL-6 level in mouse brain tissue after i.c.v. oligomeric Aβ and HAEE (ELISA); assay type: in vivo; details: C57BL/6 mice; i.c.v. oligomeric Aβ day 1; HAEE 100 µM 1 μL i.c.v. days 1-3; ELISA of brain homogenate; vs Aβ + ACSF; n = 8
Protocol: IL-6 and TNFα in all samples were assessed using commercial ELISA kits (IL-6 Mouse Uncoated ELISA Kit, Mouse TNF alpha Uncoated ELISA Kit, Thermo Fisher Scientific, Waltham, MA, USA) according to the manufacturer’s instructions.

[11] = system: mixed primary culture of mouse brain cells; test: Aβ uptake and clearance in mixed primary culture of brain cells (ELISA); assay type: cell-based, C57BL/6 mouse; details: Aβ 1 µM, HAEE 30 µM, n = 4

T3 sequence (P05067 672-713): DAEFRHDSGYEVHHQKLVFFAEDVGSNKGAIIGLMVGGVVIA
T1 sequence (P05067 672-713): as above
T2 sequence (Q91ZX7 20-4545): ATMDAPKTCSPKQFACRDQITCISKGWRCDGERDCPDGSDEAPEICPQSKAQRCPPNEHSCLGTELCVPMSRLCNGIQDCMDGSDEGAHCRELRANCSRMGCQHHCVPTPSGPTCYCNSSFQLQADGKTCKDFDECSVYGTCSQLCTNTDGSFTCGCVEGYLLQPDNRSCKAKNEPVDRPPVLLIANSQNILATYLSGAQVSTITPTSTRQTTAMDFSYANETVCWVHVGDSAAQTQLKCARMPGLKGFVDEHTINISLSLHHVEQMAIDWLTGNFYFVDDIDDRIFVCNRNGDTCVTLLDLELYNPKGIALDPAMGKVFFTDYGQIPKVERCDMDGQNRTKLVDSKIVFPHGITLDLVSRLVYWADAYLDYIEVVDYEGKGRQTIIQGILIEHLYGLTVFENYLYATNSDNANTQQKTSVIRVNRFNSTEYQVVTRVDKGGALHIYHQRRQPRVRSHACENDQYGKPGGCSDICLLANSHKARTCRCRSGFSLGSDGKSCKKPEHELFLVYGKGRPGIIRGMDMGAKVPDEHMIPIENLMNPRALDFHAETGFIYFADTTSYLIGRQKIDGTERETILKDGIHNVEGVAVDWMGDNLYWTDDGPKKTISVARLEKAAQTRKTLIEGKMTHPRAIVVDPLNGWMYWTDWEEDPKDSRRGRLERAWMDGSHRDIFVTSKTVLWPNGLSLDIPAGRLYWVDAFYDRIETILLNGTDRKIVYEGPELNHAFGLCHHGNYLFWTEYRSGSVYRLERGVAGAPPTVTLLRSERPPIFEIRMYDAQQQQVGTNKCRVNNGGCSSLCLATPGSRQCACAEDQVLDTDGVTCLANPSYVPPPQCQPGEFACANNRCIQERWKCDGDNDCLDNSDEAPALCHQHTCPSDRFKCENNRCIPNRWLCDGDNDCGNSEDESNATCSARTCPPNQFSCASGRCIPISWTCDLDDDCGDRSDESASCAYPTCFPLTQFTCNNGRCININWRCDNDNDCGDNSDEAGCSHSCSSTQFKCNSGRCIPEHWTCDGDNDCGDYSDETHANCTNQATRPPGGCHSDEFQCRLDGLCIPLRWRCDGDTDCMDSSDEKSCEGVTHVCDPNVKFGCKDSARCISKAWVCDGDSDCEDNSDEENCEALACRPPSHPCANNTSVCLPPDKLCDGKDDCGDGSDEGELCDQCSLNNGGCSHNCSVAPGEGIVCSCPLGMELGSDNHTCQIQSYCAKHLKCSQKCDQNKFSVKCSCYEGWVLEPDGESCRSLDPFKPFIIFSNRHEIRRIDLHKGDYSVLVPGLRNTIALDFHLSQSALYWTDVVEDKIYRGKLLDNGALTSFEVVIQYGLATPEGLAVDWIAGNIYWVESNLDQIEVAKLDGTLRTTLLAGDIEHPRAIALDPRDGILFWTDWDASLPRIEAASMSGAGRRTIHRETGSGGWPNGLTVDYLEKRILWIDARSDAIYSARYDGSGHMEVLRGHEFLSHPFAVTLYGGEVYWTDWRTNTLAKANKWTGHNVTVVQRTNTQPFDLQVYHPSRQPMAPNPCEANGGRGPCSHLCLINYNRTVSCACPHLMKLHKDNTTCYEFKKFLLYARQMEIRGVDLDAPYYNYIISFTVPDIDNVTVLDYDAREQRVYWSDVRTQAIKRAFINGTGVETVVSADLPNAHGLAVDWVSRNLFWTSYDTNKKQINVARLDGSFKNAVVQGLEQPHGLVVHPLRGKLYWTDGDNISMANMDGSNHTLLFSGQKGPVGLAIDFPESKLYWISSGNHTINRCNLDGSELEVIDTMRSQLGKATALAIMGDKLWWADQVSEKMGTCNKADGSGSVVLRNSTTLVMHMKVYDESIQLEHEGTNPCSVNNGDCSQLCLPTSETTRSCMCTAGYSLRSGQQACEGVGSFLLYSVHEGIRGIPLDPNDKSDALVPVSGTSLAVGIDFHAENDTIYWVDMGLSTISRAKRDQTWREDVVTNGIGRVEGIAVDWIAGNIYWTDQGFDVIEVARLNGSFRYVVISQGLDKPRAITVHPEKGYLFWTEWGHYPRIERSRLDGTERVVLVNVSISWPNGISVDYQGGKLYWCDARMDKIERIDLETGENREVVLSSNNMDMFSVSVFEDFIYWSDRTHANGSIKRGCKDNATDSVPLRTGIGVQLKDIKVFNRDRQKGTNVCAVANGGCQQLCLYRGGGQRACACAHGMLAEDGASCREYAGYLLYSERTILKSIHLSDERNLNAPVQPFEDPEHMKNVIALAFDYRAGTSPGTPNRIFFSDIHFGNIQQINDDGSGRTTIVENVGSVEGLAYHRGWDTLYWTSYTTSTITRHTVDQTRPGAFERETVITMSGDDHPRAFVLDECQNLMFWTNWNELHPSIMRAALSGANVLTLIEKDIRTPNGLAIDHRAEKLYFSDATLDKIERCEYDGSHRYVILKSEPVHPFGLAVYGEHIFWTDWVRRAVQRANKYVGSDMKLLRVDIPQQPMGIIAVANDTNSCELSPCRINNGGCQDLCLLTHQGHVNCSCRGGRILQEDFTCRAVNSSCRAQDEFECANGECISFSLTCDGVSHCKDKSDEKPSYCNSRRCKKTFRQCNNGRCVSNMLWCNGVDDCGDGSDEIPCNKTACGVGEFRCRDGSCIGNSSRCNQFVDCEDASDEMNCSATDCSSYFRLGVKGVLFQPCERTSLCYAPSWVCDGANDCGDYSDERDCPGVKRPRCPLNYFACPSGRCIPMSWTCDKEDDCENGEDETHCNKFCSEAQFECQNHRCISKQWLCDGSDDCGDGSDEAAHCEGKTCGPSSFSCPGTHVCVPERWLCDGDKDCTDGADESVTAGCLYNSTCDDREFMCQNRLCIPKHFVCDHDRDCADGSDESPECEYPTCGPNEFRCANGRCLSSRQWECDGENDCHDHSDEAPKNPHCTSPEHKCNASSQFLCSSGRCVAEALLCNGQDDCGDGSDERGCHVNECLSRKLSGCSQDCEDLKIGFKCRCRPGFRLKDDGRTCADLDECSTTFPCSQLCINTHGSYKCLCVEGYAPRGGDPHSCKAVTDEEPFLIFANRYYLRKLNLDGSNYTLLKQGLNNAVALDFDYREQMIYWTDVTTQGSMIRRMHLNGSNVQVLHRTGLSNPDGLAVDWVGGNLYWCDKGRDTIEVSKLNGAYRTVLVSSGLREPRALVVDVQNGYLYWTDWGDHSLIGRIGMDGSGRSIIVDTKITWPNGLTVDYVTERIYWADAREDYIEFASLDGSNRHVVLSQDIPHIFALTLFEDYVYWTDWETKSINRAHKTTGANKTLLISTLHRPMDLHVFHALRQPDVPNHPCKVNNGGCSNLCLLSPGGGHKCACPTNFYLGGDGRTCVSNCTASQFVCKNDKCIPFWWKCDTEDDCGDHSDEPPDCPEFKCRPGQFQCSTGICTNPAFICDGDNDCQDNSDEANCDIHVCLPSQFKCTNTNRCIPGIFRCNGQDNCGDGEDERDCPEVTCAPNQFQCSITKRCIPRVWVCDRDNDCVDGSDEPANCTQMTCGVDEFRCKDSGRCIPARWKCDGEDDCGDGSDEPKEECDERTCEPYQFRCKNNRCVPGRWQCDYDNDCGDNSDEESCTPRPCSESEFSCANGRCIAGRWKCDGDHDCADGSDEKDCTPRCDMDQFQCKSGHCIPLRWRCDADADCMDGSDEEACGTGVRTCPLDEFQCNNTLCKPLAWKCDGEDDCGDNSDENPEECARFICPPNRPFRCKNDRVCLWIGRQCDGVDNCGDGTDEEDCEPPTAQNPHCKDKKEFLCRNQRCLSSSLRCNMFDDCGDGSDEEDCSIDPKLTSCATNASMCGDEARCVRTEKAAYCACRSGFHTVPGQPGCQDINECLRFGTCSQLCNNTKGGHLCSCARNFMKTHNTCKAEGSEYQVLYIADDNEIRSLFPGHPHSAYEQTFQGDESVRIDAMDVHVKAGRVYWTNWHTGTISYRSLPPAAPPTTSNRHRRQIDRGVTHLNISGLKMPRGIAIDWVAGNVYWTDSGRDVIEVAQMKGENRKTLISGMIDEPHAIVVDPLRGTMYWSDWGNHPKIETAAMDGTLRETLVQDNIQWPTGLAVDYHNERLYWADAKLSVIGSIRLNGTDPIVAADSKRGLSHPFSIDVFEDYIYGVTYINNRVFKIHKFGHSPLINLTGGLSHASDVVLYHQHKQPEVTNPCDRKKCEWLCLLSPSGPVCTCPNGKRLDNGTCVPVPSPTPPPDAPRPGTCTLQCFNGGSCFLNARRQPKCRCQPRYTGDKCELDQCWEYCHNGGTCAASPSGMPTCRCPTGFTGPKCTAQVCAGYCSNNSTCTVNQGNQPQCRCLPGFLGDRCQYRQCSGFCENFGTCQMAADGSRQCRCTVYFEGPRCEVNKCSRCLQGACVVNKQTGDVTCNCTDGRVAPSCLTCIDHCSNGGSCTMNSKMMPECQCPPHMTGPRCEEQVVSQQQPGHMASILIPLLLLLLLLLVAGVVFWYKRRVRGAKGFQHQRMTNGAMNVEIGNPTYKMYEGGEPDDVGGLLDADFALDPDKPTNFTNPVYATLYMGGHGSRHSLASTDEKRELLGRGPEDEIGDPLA

Q: With `O=C(/C=C/c1ccc(/C=C/C(=O)Nc2ccc(C3=NCCN3)cc2)cc1)Nc1ccc(C2=NCCN2)cc1` [GW4869, reference compound] as the compound, how does the “effect of GW4869 on HAEE-dependent Aβ clearance in microglial cells” value (HMC3 cells [1]) read?
A: did not prevent the effect of HAEE

Q: Which “rate of Aβ clearance” value (HMC3 microglial cells; 24–48 h period) does the source give for `CC(=O)N[C@@H](Cc1c[nH]cn1)C(=O)N[C@@H](C)C(=O)N[C@@H](CCC(=O)O)C(=O)N[C@@H](CCC(=O)O)C(N)=O` [HAEE, Acetyl-HAEE-Amide] (Ac-HAEE-NH2) here?
A: doubled

Q: And the “amount of intracellular Aβ after 24 h and 48 h of incubation compared to cells not treated with HAEE” value (HMC3 microglial cells; ELISA)?
A: significantly reduced

Q: What about the “formation of toxic, zinc-induced Aβ oligomers” value [2] of the same compound?
A: blocks

Q: What about the “reduction of Aβ level in mouse brain tissue” value (Aβ; 8-month-old, i.c.v. oligomeric Aβ 1 μL day 1, brain lysate ELISA 30 min after final injection, vs Aβ + ACSF) of the same compound?
A: 35%

Q: What about the “Aβ level in the brain of mice treated with HAEE compared to animals that did not receive the tetrapeptide” value (Aβ; i.c.v. oligomeric Aβ day 1, ELISA) of the same compound?
A: reliably reduced

Q: And the “effect on Aβ-induced change in reactive oxygen species (ROS) level” value (HMC3 cells [3]; dihydrorhodamine 123, n = 4)?
A: completely prevented

Q: What about the “effect on Aβ-induced change in reduced glutathione (GSH) level” value (HMC3 cells [3]; monobromobimane, n = 4) of the same compound?
A: completely prevented

Q: What about the “reduction of Aβ uptake by endothelial cells on blocking LRP1, in the presence of HAEE” value (LRP1) of the same compound?
A: 30%

Q: And the “effect on Aβ-induced changes in lysosomes (size and number)” value (HMC3 cells [4])?
A: completely abolished

Q: And the “amount of Aβ oligomers (oligomer-specific ELISA)” value (Aβ oligomers [5])?
A: reduced the amount of Aβ oligomers

Q: What about the “rate of Aβ passage across the BBB from abluminal to luminal compartment” value (bEnd.3 cells) of the same compound?
A: significantly increased

Q: What about the “effect on the rate of Aβ clearance” value ([6]; 24–48 h period) of the same compound?
A: did not affect

Q: And the “level of intracellular Aβ after 24–48 h of incubation compared to cells treated with Aβ alone” value ([6]; ELISA)?
A: decreased

Q: What about the “average size of Aβ oligomers (DLS)” value (Aβ oligomers [7]) of the same compound?
A: reduced their average size

Q: And the “effect on TNFα levels in mouse brain tissue” value (TNFα)?
A: no effect

Q: And the “effect on Aβ-induced increase in IL-6 level” value (HMC3 cells [8])?
A: effectively inhibited

Q: What about the “reduction of intracellular Aβ level, HAEE + GW4869 compared to GW4869 alone” value (HMC3 cells [1]) of the same compound?
A: 40%

Q: What about the “effect on the inhibitory effect of Aβ42 on nicotinic α4β2 acetylcholine receptors” value [9] of the same compound?
A: completely abolishes

Q: And the toxicity [10]?
A: non-toxic

Q: And the “decrease in IL-6 levels in mouse brain tissue” value (IL-6)?
A: 40%

Q: What about the “effect on Aβ clearance by the cells at 24–48 h” value ([11]; clearance rate = difference of Aβ level 48 h vs 24 h divided by 24 h) of the same compound?
A: notably accelerated

Q: And the “effect on intracellular Aβ level at 4–24 h” value ([11]; medium without FBS, ELISA)?
A: did not significantly affect
